{"source": "patent US20150087627A1", "about": "“COMBINATION OF KINASE INHIBITORS AND USES THEREOF” (Intellikine LLC, priority 2011, published 2015)", "key": {"[1]": {"system": "786-0 cells, a human kidney carcinoma cell line having a non-mutated PI3Kα", "test": "In vivo efficacy in 786-0 kidney carcinoma xenograft", "set-up": "species or system mice", "conditions": "FIG. 6", "method": "Compound A was administered orally at 60 and 120 mg/kg and compound A was administered orally as a solution at 1 mg/kg (QD). For example, a PI3Kα inhibitor is compared to a kinase inhibitor with specificity for mTor. […] FIG. 6C also provides biochemical potency data for the two compared inhibitors. PI3 Kinase α, β, γ and δ activity was assayed using the PI3 Kinase HTRF® assay kit (Millipore Corporation). Purified recombinant PI3Kα, PI3Kβ, PI3Kγ and PI3Kδ were obtained from Millipore Corporation. […] Emission ratios were converted into percent inhibitions and imported into GraphPad Prism software. […] IC50 values were determined using a nonlinear regression model available in GraphPad Prism 5."}, "[2]": {"system": "KRAS/PIK3CA colon model", "test": "KRAS/PIK3CA colon model (FIG. 19)", "format": "in vivo"}, "[3]": {"system": "MDA-MB-361 human breast cancer xenografts", "test": "Antitumor activity and tumor regrowth, MDA-MB-361 xenografts (Example 42)", "format": "in vivo, Mus musculus", "conditions": "for MTV on Day 65: n = 4; for % TGI on Day 65: based on the control group on Day 65; for TGI: Day 29", "method": "(room temperature), shielded from light. The test article Compound A was prepared in 5% NMP+95% PEG400 every 5 to 7 days and stored at approximately 25° C. (room temperature), shielded from light. The control article used in this study was 5% NMP+95% PEG400. Compounds were completely dissolved in NMP by sonication, followed by the addition of an appropriate volume of PEG400, and the final solution was vortexed and sonicated to ensure thorough mixing.\nLow-passage MDA-MB-361 cells were grown in Eagle's Minimal Essential Medium (EMEM) media supplemented with 20% fetal bovine serum (FBS) and 1× penicillin/streptomycin (Invitrogen, Carlsbad, Calif., USA) until approximately 80% confluency was reached. Before injection, the cells were detached with GIBCO® trypsin (Invitrogen), washed twice with phosphate-buffered saline (PBS), and resuspended in Roswell Park Memorial Institute (RPMI) media (Invitrogen) without supplements. Cells were resuspended to a final concentration of 5×10^7 cells/mL in RPMI media without supplements. MDA-MB-361 cells (5.0×10^6 cells/animal in 0.1-mL injection volume) were implanted SC into the flank of female athymic nu/nu nude mice. The animals used in this study are described in the following table.\nFemale 5 to 6-week old female (athymic nu/nu) nude mice were inoculated SC in the flank with 5.0×10^6 MDA-MB-361 cells. Tumor growth was monitored with vernier calipers. The MTV was calculated using the formula V=W^2×L÷2. When the MTV reached approximately 235 mm^3, the animals were randomized into 4 treatment groups (n=8/group). Treatment started on Day 0. […] Tumor growth and body weight were measured twice weekly. Percent TGI and body weight change were calculated on Day 29. Four mice from each group were euthanized on Day 29 and tissues were harvested for pharmacodynamic studies. The remaining mice continued on study until Day 65, and tumor size and body weight in these mice were measured every 9 to 11 days.\nAntitumor activity was determined by calculating the percent TGI using Equation 1: Percent TGI)=(MTV of the control group−MTV of a treated group) MTV of the control group×100\nTumor growth delay was determined by calculating the time until MTV in a given treatment group reached 1000 mm^3 versus the time until MTV in the control group reached 1000 mm^3.\nThe differences in trends of tumor growth over time between pairs of treatment groups were assessed using linear mixed-effects regression models. These models account for the fact that each animal was measured at multiple time points. A separate model was fit for each comparison, and the AUC for each treatment group was calculated using the predicted values from the model. The percent decrease in AUC (ΔAUC) relative to the reference group was then calculated.\nA statistical analysis was performed with a linear mixed-effects regression model that takes into account the differences in trends of tumor growth between control and treated samples. Differences among mice were treated as random effects, and a compound symmetry covariance structure was used to model the variability between repeated tumor measurements for each mouse. Treatment comparisons were performed by using the fitted curves from the model to calculate the ΔAUC. The significance of the ΔAUC was assessed using permutation testing. All p values less than 0.05 were considered significant.\nA combination score calculation was used to address the question of whether the effects of the combination treatments were more than additive (synergistic), additive, or subadditive (antagonistic) relative to the individual treatments. […] All p values less than 0.05 were considered significant."}}, "note": "Several values for one entry are separate records, joined by “and”; a condition that tells them apart may be missing. Equal entries are not always repeated."}
{"molecule": "Nc1nc2cc(-c3ccc4ncc(C(=O)N5CCOCC5)n4c3)ccc2o1", "note": "[Compound A]", "values": [{"measurement": "anti-tumor activity in 786-0 model", "setting": "[1]; orally at 60 and 120 mg/kg, compared to MDA derived tumors", "value": "decreased activity"}, {"measurement": "activity in a KRAS/PIK3CA colon model", "setting": "[2]", "value": "not effective"}, {"measurement": "MTV on Day 65", "setting": "[3]; 60 mg/kg PO QD until Day 29, regrowth", "value": "500 mm^3 and 511.4 ± 568^ mm^3"}, {"measurement": "% TGI on Day 65", "setting": "[3]; 60 mg/kg PO QD until Day 29", "value": 69.5, "unit": "%"}, {"measurement": "TGI", "setting": "[3]; 60.0 mg/kg PO QD", "value": 77.4, "unit": "%"}]}
{"molecule": "CC(C)n1nc(-c2ccc3oc(N)nc3c2)c2c(N)ncnc21", "note": "[Compound B]", "values": [{"measurement": "inhibition of kinase activity and tumor growth in 786-0 model", "setting": "[1]; orally as a solution at 1 mg/kg (QD)", "value": "effective"}, {"measurement": "activity in a KRAS/PIK3CA colon model", "setting": "[2]", "value": "not effective"}, {"measurement": "TGI", "setting": "[3]; 0.3 mg/kg PO QD for 30 days", "value": 71.1, "unit": "%"}, {"measurement": "MTV on Day 65", "setting": "[3]; 0.3 mg/kg PO QD until Day 29, regrowth", "value": "649.6 ± 457.7", "unit": "mm^3"}, {"measurement": "% TGI on Day 65", "setting": "[3]; 0.3 mg/kg PO QD until Day 29", "value": 61.3, "unit": "%"}, {"measurement": "MTV on Day 29", "setting": "[3]; 0.3 mg/kg PO QD, n = 8", "value": "210.9 mm^3 and 210.9 ± 103.3 mm^3"}]}
